Experimental data reported in patent publication US20130137706A1, “Antimicrobial Molecules For Treating Multi-Drug Resistant and Extensively Drug Resistant Strains Of Mycobacterium” (POLYMEDIX, INC., priority 2008, published 2013).
In brackets after ≈: the same amount, converted by molar mass. Where two headings read alike, the source gives them in different places.

Key:
[1] = test system: M. tuberculosis (H37Rv strain); test: Microplate Alamar Blue Assay (MABA) susceptibility assay in BACTEC 12B medium; assay type: cell-based; conditions: Mycobacterium tuberculosis
monkey VERO cells = test: VERO cell cytotoxicity assay (luminescent ATP cell viability, 72 hour exposure); assay type: cell-based; conditions: Primates
[2] = H37Rv strain, MABA, 90% reduction in fluorescence relative to controls, read-out: IC90 M. tuberculosis (H37Rv strain)
[3] = Table 1, H37Rv strain, read-out: IC90 value (v. M. tuberculosis)
[4] = Vero, summary of Table 1, read-out: EC50 value (v. Monkey VERO Cells)
[5] = VERO cells, 72 hour exposure, ATP luminescence, read-out: EC50 VERO cells

Structure (SMILES)	IC90 [1, 2]	IC90 [1, 3]	EC50 (monkey VERO cells; [4])	EC50 (monkey VERO cells; [5])
CC(C)(C)c1cc(N)c(SCCNC(=N)N)c(NC(=O)c2cc(C(=O)Nc3cc(C(C)(C)C)cc(N)c3SCCNC(=N)N)c(OCCNC(=N)N)cc2OCCNC(=N)N)c1 [Compound 2]	4.5 µg/mL (≈ 5.03 µM)	< 5 µg/mL	> 300 µg/mL	> 300 µg/mL
CC(C)(C)c1cc(N)c(SCCNC(=N)N)c(NC(=O)c2cc(OCCNC(=N)N)cc(C(=O)Nc3cc(C(C)(C)C)cc(N)c3SCCNC(=N)N)c2)c1 [Compound 1]	2.2 µg/mL (≈ 2.77 µM)	< 5 µg/mL	> 300 µg/mL	> 300 µg/mL
CC(C)(C)c1cc(NC(=O)CCCCNC(=N)N)c(SCCN)c(NC(=O)Nc2cc(C(C)(C)C)cc(NC(=O)CCCCNC(=N)N)c2SCCN)c1 [Compound 4]	18.4 µg/mL (≈ 23.4 µM)	< 20 µg/mL	> 300 µg/mL	> 300 µg/mL
N=C(N)NCCCCC(=O)Nc1cccc(NC(=O)c2cc(C(=O)Nc3cccc(NC(=O)CCCCNC(=N)N)c3SCCN)ncn2)c1SCCN [Compound 3]	3.6 µg/mL (≈ 4.61 µM)	< 5 µg/mL	> 100 µg/mL	> 100 µg/mL
